Molecular target: T1, GluA1o-γ8 (Homo sapiens, UniProt P42261+Q8WXS5)
T1 construct: expressed in transfected cells
Assay: Calcium flux assay (FLIPR), inhibition of glutamate response of GluA1o-γ8 channel in HEK293 cells
Assay type: cell-based
Settings: HEK293 cells stably expressing GRIA1o-CACNG8 fusion, 15 μM glutamate, pIC50 = negative log of the IC50 in molar; for IC50: read-out: GluR1-γ8 pIC50 (converted)
Description: This assay was used to test compounds for their ability to inhibit TARP γ8 dependent AMPA receptor activity. The AMPA receptor is a non-selective cation channel activated by glutamate. Ionotropic glutamate receptors normally desensitize too rapidly to allow detectable calcium influx in a FLIPR assay (Strange et al. (2006). “Functional characterisation of homomeric ionotropic glutamate receptors GluR1-GluR6 in a fluorescence-based high throughput screening assay.” Comb Chem High Throughput Screen 9(2): 147-158). But, this desensitization is incomplete, and a substantial steady-state current remains in the sustained presence of glutamate (Cho et al. (2007). “Two families of TARP isoforms that have distinct effects on the kinetic properties of AMPA receptors and synaptic currents.” Neuron 55(6): 890-904).
An in vitro assay was used to determine the potency of test compounds as inhibitors of the glutamate response of the channel formed by GluA1o-γ8. To ensure a 1:1 stoichiometry of GluA1o and γ8 subunits in the expressed channel, a fusion of the cDNAs for GRIA1o and CACNG8 was used. Following Shi et al (2009) “The stoichiometry of AMPA receptors and TARPs varies by neuronal cell type.” Neuron 62(5): 633-640), the C-terminus of the cDNA for GRIA1o was fused to the N-terminus of the cDNA for γ8. The linker sequence was QQQQQQQQQQEFAT. Channels expressed with this construct appear to have similar properties to channels formed by co-expression of GRIA1o with an excess of CACNG8 (Shi et al. 2009). A clonal cell line in HEK293 cells stably expressing this construct, with a geneticin selection marker, was generated for use in this assay. Cell expressing the GRIA1o-CACNG8 fusion construct were grown in a monolayer in 96- or 384-well microtiter plates. They were washed with assay buffer (135 mM NaCl, 4 mM KCl, 3 mM CaCl2, 1 mM MgCl2, 5 mM glucose, 10 mM HEPES, pH 7.4, 300 mOs) using a Biotek EL405 plate washer. The cells were then loaded with a calcium-sensitive dye (Calcium-5 or Calcium-6, Molecular Devices) and the test compounds at a range of concentrations. Calcium flux following the addition of 15 μM glutamate was monitored using a Molecular Devices FLIPR Tetra.
The fluorescence in each well was normalized to the fluorescence of negative and positive control wells. The negative control wells had no added compounds, and the positive control wells had been incubated with 10 μM CP465022 (a non-subtype-selective AMPA receptor antagonist) (Lazzaro et al. (2002). “Functional characterization of CP-465,022, a selective, noncompetitive AMPA receptor antagonist.” Neuropharmacology 42(2): 143-153). The responses to glutamate as functions of the test compound concentrations were fitted to a four-parameter logistic function. The fitted parameter corresponding to the midpoint was taken to be the potency of inhibition of the compound. The data in Table 4 below illustrates the observed potentcy for the compounds described herein. pIC50 refers to the negative log of the IC50 in molar.

T1 sequence (P42261+Q8WXS5 fused): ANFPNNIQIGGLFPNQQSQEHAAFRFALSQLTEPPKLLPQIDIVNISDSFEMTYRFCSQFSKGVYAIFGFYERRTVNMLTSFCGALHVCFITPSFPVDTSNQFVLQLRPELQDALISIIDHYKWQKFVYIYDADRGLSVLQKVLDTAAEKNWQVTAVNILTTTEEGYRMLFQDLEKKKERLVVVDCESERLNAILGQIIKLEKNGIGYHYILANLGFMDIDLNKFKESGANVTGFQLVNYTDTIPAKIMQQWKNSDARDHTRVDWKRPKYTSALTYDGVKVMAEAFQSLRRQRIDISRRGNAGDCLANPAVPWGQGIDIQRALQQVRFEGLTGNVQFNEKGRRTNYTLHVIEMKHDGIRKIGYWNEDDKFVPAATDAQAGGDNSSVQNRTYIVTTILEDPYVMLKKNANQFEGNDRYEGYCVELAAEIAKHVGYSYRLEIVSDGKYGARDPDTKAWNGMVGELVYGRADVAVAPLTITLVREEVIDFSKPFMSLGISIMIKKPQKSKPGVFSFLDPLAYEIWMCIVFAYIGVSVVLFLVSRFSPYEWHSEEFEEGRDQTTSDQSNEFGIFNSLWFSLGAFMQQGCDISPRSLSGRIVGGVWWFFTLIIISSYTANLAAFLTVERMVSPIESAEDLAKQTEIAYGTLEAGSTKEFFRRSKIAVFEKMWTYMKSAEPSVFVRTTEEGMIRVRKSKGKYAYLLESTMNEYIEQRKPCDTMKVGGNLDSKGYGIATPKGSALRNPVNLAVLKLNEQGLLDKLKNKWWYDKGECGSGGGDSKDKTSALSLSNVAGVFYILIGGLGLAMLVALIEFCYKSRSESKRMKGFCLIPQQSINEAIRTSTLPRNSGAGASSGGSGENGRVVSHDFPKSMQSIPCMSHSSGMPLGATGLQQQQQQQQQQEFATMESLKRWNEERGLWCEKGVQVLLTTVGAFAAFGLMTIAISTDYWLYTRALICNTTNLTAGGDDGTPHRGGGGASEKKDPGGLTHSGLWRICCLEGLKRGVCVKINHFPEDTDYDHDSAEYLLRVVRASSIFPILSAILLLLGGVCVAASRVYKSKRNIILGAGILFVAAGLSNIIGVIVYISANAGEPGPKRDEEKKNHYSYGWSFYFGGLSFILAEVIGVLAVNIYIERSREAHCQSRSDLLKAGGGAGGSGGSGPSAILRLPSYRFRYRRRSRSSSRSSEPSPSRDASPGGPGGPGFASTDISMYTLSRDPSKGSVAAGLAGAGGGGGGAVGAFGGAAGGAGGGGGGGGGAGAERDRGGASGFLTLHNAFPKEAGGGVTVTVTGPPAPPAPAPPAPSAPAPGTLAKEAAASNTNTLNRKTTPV

| Structure (SMILES) | IC50 | GluR1-γ8 pIC50 |
| --- | --- | --- |
| Cc1cc(-c2c(F)cccc2Cl)cc2c1NC(=O)C2 [Example 141, 5-(2-Chloro-6-fluoro-phenyl)-7-methyl-indolin-2-one] | 2 nM |  |
| CC(C)(C#N)c1cccc(Cl)c1-c1cc(Cl)c2c(c1)CC(=O)N2 [Example 155, 2-[3-Chloro-2-(7-chloro-2-oxo-indolin-5-yl)phenyl]-2-methyl-propanenitrile] | 0.158 nM |  |
| CCc1cc(-c2c(C)cccc2Cl)cc2c1NC(=O)C2 [Example 170, 5-(2-Chloro-6-methyl-phenyl)-7-ethyl-indolin-2-one] | 0.251 nM |  |
| O=C1Cc2cc(-c3c(Cl)cncc3OC(F)F)cc(Cl)c2N1 [Example 158, 7-Chloro-5-[3-chloro-5-(difluoromethoxy)-4-pyridyl]indolin-2-one] | 7.94 nM |  |
| Cc1cccc(F)c1-c1cc(Cl)c2c(c1)CC(=O)N2 [Example 166, 7-Chloro-5-(2-fluoro-6-methyl-phenyl)indolin-2-one] | 0.794 nM |  |
| COC1CCN(c2cccc(-c3ccc4c(c3)CC(=O)N4)c2Cl)CC1 [Example 179, 5-[2-Chloro-3-(4-methoxy-1-piperidyl)phenyl]indolin-2-one] | 6310 nM |  |
| COc1cccc(OC(F)F)c1-c1cc(F)c2c(c1)CC(=O)N2 [Example 123, 5-[2-(Difluoromethoxy)-6-methoxy-phenyl]-7-fluoro-indolin-2-one] | > 10000 nM |  |
| CCc1cc(-c2c(C)cccc2C#N)cc2c1NC(=O)C2 [Example 169, 2-(7-Ethyl-2-oxo-indolin-5-yl)-3-methyl-benzonitrile] | 3.16 nM |  |
| Cc1cc(-c2c(Cl)cccc2OC(F)(F)F)cc2c1NC(=O)C2 [Example 127, 5-[2-Chloro-6-(trifluoromethoxy)phenyl]-7-methyl-indolin-2-one] |  | 9.7 |
| Cc1cc(-c2c(C)cncc2C)cc2c1NC(=O)C2 [Example 148, 5-(3,5-Dimethyl-4-pyridyl)-7-methyl-indolin-2-one] | 10 nM |  |
| Cc1cc(-c2c(Cl)cnc(C(F)(F)F)c2Cl)cc2c1NC(=O)C2 [Example 144, 5-(3,5-Dichloro-2-(trifluoromethyl)pyridin-4-yl)-7-methylindolin-2-one] | 12.6 nM |  |
| Cc1cc(-c2c(F)cccc2OC(F)F)cc2c1NC(=O)C2 [Example 131, 5-[2-(Difluoromethoxy)-6-fluoro-phenyl]-7-methyl-indolin-2-one] | 5.01 nM |  |
| Cc1cc(-c2c(Cl)ccc(C#N)c2OC(F)(F)F)cc2c1NC(=O)C2 [Example 133, 4-Chloro-3-(7-methyl-2-oxoindolin-5-yl)-2-(trifluoromethoxy)benzonitrile] | 0.126 nM |  |
| Cc1cccc(C)c1-c1ccc2c(c1)CC(=O)N2 [Example 1, 5-(2,6-Dimethylphenyl)indolin-2-one] |  | 6.4 |
| O=C1Cc2cc(-c3c(Cl)cccc3OC(F)(F)F)cc(F)c2N1 [Example 117, 5-(2-Chloro-6-(trifluoromethoxy)phenyl)-7-fluoroindolin-2-one] | 3.16 nM |  |
| Cc1cc(-c2c(C)cccc2C(F)(F)F)cc2c1NC(=O)C2 [Example 137, 7-Methyl-5-[2-methyl-6-(trifluoromethyl)phenyl]indolin-2-one] | 1.26 nM |  |
| O=C1Cc2cc(-c3c(Cl)ccnc3Cl)cc(Cl)c2N1 [Example 163, 7-Chloro-5-(2,4-dichloro-3-pyridyl)indolin-2-one] | 1.58 nM |  |
| Cc1ccnc(Cl)c1-c1cc(Cl)c2c(c1)CC(=O)N2 [Example 160, 7-Chloro-5-(2-chloro-4-methyl-3-pyridyl)indolin-2-one] | 6.31 nM |  |
| Cc1cc(-c2c(C)cccc2F)cc2c1NC(=O)C2 [Example 136, 5-(2-Fluoro-6-methyl-phenyl)-7-methyl-indolin-2-one] | 3.16 nM |  |
| Cc1cc(-c2c(C)cccc2C)cc2c1NC(=O)C2 [Example 142, 5-(2,6-Dimethylphenyl)-7-methyl-indolin-2-one] | 2.51 nM |  |
| CCc1cc(-c2c(C)cncc2C)cc2c1NC(=O)C2 [Example 173, 5-(3,5-Dimethyl-4-pyridyl)-7-ethyl-indolin-2-one] | 15.8 nM |  |

| Structure (SMILES) | IC50 | GluR1-γ8 pIC50 |
| --- | --- | --- |
| Cc1cc(-c2c(Cl)cccc2OC(F)F)cc2c1NC(=O)C2 [Example 128, 5-[2-Chloro-6-(difluoromethoxy)phenyl]-7-methyl-indolin-2-one] | 1 nM |  |
| Cc1cc(-c2c(Cl)cncc2Cl)cc2c1NC(=O)C2 [Example 147, 5-(3,5-Dichloro-4-pyridyl)-7-methyl-indolin-2-one] | 7.94 nM |  |
| Cc1cc(-c2c(Cl)cccc2C#N)cc2c1NC(=O)C2 [Example 143, 3-Chloro-2-(7-methyl-2-oxoindolin-5-yl)benzonitrile] | 5.01 nM |  |
| Cc1cc(-c2c(C)cccc2Cl)cc2c1NC(=O)C2 [Example 135, 5-(2-Chloro-6-methyl-phenyl)-7-methyl-indolin-2-one] | 0.398 nM |  |
| N#Cc1ccc(Cl)c(-c2ccc3c(c2)CC(=O)N3)c1OC(F)(F)F [Example 115, 4-Chloro-3-(2-oxoindolin-5-yl)-2-(trifluoromethoxy)benzonitrile] | 12.6 nM |  |
| Cc1cc(-c2c(Cl)cccc2C(C)(C)C#N)cc2c1NC(=O)C2 [Example 132, 2-[3-Chloro-2-(7-methyl-2-oxo-indolin-5-yl)phenyl]-2-methyl-propanenitrile] | 0.501 nM |  |
| CCc1cc(-c2c(Cl)cncc2Cl)cc2c1NC(=O)C2 [Example 174, 5-(3,5-Dichloro-4-pyridyl)-7-ethyl-indolin-2-one] | 5.01 nM |  |
| O=C1Cc2cc(-c3c(Cl)cccc3OC(F)F)cc(Cl)c2N1 [Example 154, 7-Chloro-5-[2-chloro-6-(difluoromethoxy)phenyl]indolin-2-one] | 0.316 nM |  |
| CC(C)(C#N)c1cccc(Cl)c1-c1ccc2c(c1)CC(=O)N2 [Example 81, 2-[3-Chloro-2-(2-oxoindolin-5-yl)phenyl]-2-methyl-propanenitrile] | 79.4 nM |  |
| O=C1Cc2cc(-c3c(Cl)cncc3Cl)cc(Cl)c2N1 [Example 159, 7-Chloro-5-(3,5-dichloro-4-pyridyl)indolin-2-one] | 7.94 nM |  |
| Cc1cc(-c2c(C)ccnc2Cl)cc2c1NC(=O)C2 [Example 149, 5-(2-Chloro-4-methyl-3-pyridyl)-7-methyl-indolin-2-one] | 15.8 nM |  |
| N#CCc1cccc(Cl)c1-c1ccc2c(c1)CC(=O)N2 [Example 6, 2-[3-Chloro-2-(2-oxoindolin-5-yl)phenyl]acetonitrile] | 31.6 nM |  |
| Cc1cccc(C(F)(F)F)c1-c1cc(Cl)c2c(c1)CC(=O)N2 [Example 167, 7-Chloro-5-[2-methyl-6-(trifluoromethyl)phenyl]indolin-2-one] | 0.316 nM |  |
| CCc1cc(-c2c(C)cccc2C(F)(F)F)cc2c1NC(=O)C2 [Example 172, 7-Ethyl-5-[2-methyl-6-(trifluoromethyl)phenyl]indolin-2-one] | 0.2 nM |  |
| Cc1cccc(C#N)c1-c1cc(Cl)c2c(c1)CC(=O)N2 [Example 164, 2-(7-Chloro-2-oxo-indolin-5-yl)-3-methyl-benzonitrile] | 1.58 nM |  |
| O=C1Cc2cc(-c3c(Cl)cccc3OC(F)F)cc(F)c2N1 [Example 118, 5-(2-Chloro-6-(difluoromethoxy)phenyl)-7-fluoroindolin-2-one] | 15.8 nM |  |
| Cc1ccnc(C)c1-c1cc(Cl)c2c(c1)CC(=O)N2 [Example 161, 7-Chloro-5-(2,4-dimethyl-3-pyridyl)indolin-2-one] | 158 nM |  |
| COc1cc(-c2c(Cl)cccc2OC(F)(F)F)cc2c1NC(=O)C2 [Example 178, 5-[2-Chloro-6-(trifluoromethoxy)phenyl]-7-methoxy-indolin-2-one] | 0.794 nM |  |
| Cc1cc(-c2c(F)cccc2F)cc2c1NC(=O)C2 [Example 140, 5-(2,6-Difluorophenyl)-7-methyl-indolin-2-one] | 316 nM |  |
| O=C1Cc2cc(-c3c(Cl)cccc3OC(F)(F)F)cc(OC(F)(F)F)c2N1 [Example 177, 5-[2-Chloro-6-(trifluoromethoxy)phenyl]-7-(trifluoromethoxy)indolin-2-one] | 0.2 nM |  |
